Results on 30 substances are retold here after patent US11571485B2, “Peptides and antibodies for detecting changes in alzheimer's disease brain and methods of use thereof” (Sanford Burnham Prebys Medical Discovery Institute, priority 2016, dated 2023).

Bridges are numbered along the chain shown (N, C = ends). FAM = fluorescein-amide / fluoresceinamine label

Test [1] has as its system hippocampus of hAPP-J20 AD and wild-type mice. Kind of test: In vivo CX7C T7 phage library screen, sequencing of phage recovered from hippocampus. Also on record: species or system mouse. Conditions: for Frequency/%: hippocampus 30 min after i.v. phage library, high throughput sequencing of inserts; for Representation in sequenced phage pools, AD versus normal brain: 9-month AD mouse vs normal mouse hippocampus. The method, then:
In vivo phage screening was conducted using a T7 phage library expressing random peptides with the composition of CXnC (C=cysteine; X=any amino acid; n=7). The mouse model used for this screening is the hAPP-J20 that expresses amyloid precursor protein (APP) with both the Swedish and Indiana mutations (Murrell et al., Science 254, 97-99. (1991); Mullan et al., Nat. Genet. 1, 345-347. (1992)). Peptides homing to the hippocampus of these mice was the focus because the hippocampal region is where the AB-related lesions and damage are most prevalent early on in the disease.
A CX7C phage library was intravenously injected into 9 month-old AD and wild-type (WT) littermate mice, and allowed to circulate for 30 min, after which mice were perfused with saline, brains were collected, and the hippocampal region was dissected and subjected to phage titration and high throughput sequencing of the phage inserts. A surprise result was that the number of phage recovered from the AD hippocampus samples was much higher than the number recovered from a similar screen on normal littermates of the AD mice (FIG. 1A). […] BBB leakage has also been reported in AD patients.
Parallel phage library screens were performed on a normal mouse and a 9-month old AD transgenic mouse (J20 hAPP tg mouse line, which expresses transgenic amyloid precursor protein with two disease-related mutations). The library was intravenously injected into anesthetized mice and the hippocampal area of the brain was collected 30 min after intravenous injection of the library, phage was isolated from the tissue samples and subjected to high throughput sequencing of the peptide-encoding inserts in the phage DNA. Table 1 list most abundantly represented peptide from the two kinds of brains, and all peptides with significant representation in the AD brain and absent or nearly absent in the normal brain are listed in Table 2. Two peptides, CASPRLSKC (SEQ ID NO: 3) and CESPLLSEC (SEQ ID NO: 11), from among the highest scoring ones were subjected to detailed studies as described below.
hAPP-J20 mice were intravenously injected with 1e10 pfu of a CX7C (wherein X is any amino acid) naïve phage library, in 100 μL of PBS. The library was allowed to circulate for 30 minutes, after which mice were anesthetized with 2.5% avertin and perfused with PBS intracardially. The brain was removed and the hippocampus was extracted and homogenized in LB-NP 40 (1%) and phage was processed as described (Teesalu et al., Methods Enzymol 503, 35-56 (2012)). The phages in the lysate were rescued by amplification in E. coli and peptide-encoding portion of the phage genome was sequenced using Ion Torrent high throughput sequencing.

The test system of test [2] is hAPP-J20 mouse brain (hippocampus). The note with it: i.v., 30 min circulation, 9-month-old AD (hAPP-J20) vs normal/WT mice.
Procedure: The synthetic peptides were labeled with FAM and 100 nmol and were intravenously injected to 9-month old AD mice through the tail vein. The peptides were allowed to circulate for 30 min, after which the mice were perfused with 20 ml of PBS, the brains were collected and snap-frozen in OCT for sectioning. The peptides were detected by anti-FAM staining (green), nuclei were stained with DAPI (blue), and anti-CD31 was used to visualize blood vessels.
For peptide homing, mice were intravenously injected with 50 nmole peptide dissolved in PBS, and allowed to circulate for 30 min. Mice were then perfused intracardially with saline and all major organs were isolated and fixed in 4% paraformaldehyde (PFA) at pH 7.4 overnight. The organs were then washed with PBS and placed in graded sucrose solutions overnight before optimal cutting temperature compound (OCT) embedding. Ten-micro-meter-thick sections were cut and analyzed by immunostaining.
Frozen sections were permeabilized using PBS- 0.2% Triton™ X-100 (PBST), blocking was carried out using blocking buffer (5% BSA, 1% goat serum, 1% donkey serum in PBST. Primary antibodies were incubated in diluted (1%) blocking buffer overnight at dilutions 1/100 or 1/200 at 4° C., washed with PBST and incubated with secondary antibodies diluted 1/200 or 1/500 in 1% diluted buffer for 1 hour at room temperature, subsequently washed with PBST, counterstained with DAPI 1 μg/mL in PBS for 5 minutes, washed with PBS, mounted using aqueous mounting media (Vector Biolabs), and imaged using a confocal microscope (Zeiss LSM-710).
For test [3], the system named is AD hippocampus. As to the kind of experiment: Homing of intravenously injected individual peptide-displaying phages. It counts as in vivo, mouse. Conditions: intravenously injected phage displaying the peptide. The text has this:
FIG. 1B relates to phage titration showing that about 5 times more phage were recovered from the AD hippocampus than from the normal control. In the sequencing, phages displaying the peptides code named CASP (SEQ ID NO: 3; CASPRLSKC), CES (SEQ ID NO: 11, CESPLLSEC), and DAG (SEQ ID NO: 102, CDAGRKQKC) dominated. Hippocampus from age-matched normal wild-type mouse brain was used as a control.

Test [4] addresses T1, recombinant human CTGF (Homo sapiens, UniProt P29279).
T1 construct: purchased Affymetrix 14-8503-80
T1 sequence (P29279 253-349 limits assumed): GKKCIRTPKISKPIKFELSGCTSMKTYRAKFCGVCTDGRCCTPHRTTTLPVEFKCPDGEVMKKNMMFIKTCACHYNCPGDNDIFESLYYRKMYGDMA
Kind of test: ELISA binding to recombinant CTGF. The note with it: non-labeled DAG 0.5 mM. The method, then:
FIG. 10 is a graphical representation relating to identification of a receptor for DAG. DAG binds to recombinant CTGF. FAM-DAG was incubated on ELISA plate coated with recombinant human CTGF at two different peptide concentrations of the FAM peptide alone (light gray bars), or in the presence of non-labeled DAG (0.5 mM) (dark gray bars). […] DAG was also shown to colocalize with CTGF. FAM-DAG was intravenously injected in 9-month-old hAPP-J20 and WT mice, allowed to circulate for 30 minutes, after which mice were perfused, and the brains were fixed, sectioned and stained for FAM (green) and CTGF (red).
Human CTGF recombinant protein (Affymetrix Cat #14-8503-80) was incubated on Nunc low-binding plates at concentration of 10 μg/ml for overnight at 4° C. Excess protein in the plates was removed by washing with PBS-T (PBS with 0.005% Tween 20). Plates were blocked with 200 μl of 3% non-fat milk in PBS for 1 hour at room temperature and washed with PBS-T once. Biotin-labeled peptide (at different concentrations) in PBS was added to the plate for 2 hours at 37° C. For peptide inhibition, non-labeled DAG peptide (0.5 mM) was added 30 minutes prior to addition of labeled peptide. The plates were washed with 100 μl PBS-T for three times to remove excess peptide. The bound peptide was detected by incubating with 100 μl of Vectastain ABC™ reagent (Vector labs, Burlingame, Calif.) for 30 minutes. The plate was washed with 100 μl PBS-T three times. Next, 100 μl of o-phenylenediamine dihydrochloride (OPD) silver and gold substrate (Sigma-Aldrich) was added to the wells and incubated at room temperature until visible color was observed (˜30 min). Adding 50 μl of 1 M H2SO4 stopped the reaction and the plate was read at 495 nm (FlexStation™ 3 Reader, Molecular Devices, Sunnyvale, Calif., USA).
For orientation: In an ELISA, binding on a coated surface is turned into a signal by an enzyme label.

Where [5] appears, read: Alzheimer's mouse (9-month old J20 hAPP tg).

The substance CADDGC [SEQ ID NO: 94] displayed a Frequency/% in test [1] (Wild-type mouse) of 1.244%. The same measure, in the same setting: the value for CARVKK [SEQ ID NO: 91] was 1.67%. Regarding CASPRLSKC [SEQ ID NO: 3], the “Representation in sequenced phage pools, AD versus normal brain” value in test [1] is “dominated”. Moreover, the Frequency/% in test [1] (setting [5]) stood at 0.7226%. Further, the “Homing of FAM-labeled peptide to hippocampus” value (“Homing of FAM-labeled peptide” below) in test [2] was “homed to the dentate gyms of AD brain but not normal brain”. For the same substance, in test [3], the “Phage accumulation in normal brain” value is listed as “no accumulation in normal brain” and the “Phage homing to AD hippocampus” value is given as “home to AD hippocampus with high specificity”. As to CATPRDKRTC [SEQ ID NO: 87], in test [1] (Wild-type mouse), the Frequency/% came out at 2.373%. In test [1] (Wild-type mouse), CELSQ [SEQ ID NO: 97] came in with a Frequency/% of 1.089%. As to CEQVRQKRC [SEQ ID NO: 4], in test [1] (setting [5]), the Frequency/% was found to be 0.3956%. As for CESPLLSEC [SEQ ID NO: 11], the “Representation in sequenced phage pools, AD versus normal brain” value in test [1] is “dominated”. Moreover, the Frequency/% in test [1] (setting [5]) is recorded as 0.316%. Moreover, the “Homing of FAM-labeled peptide” value in test [2] is “homed to the dentate gyms of AD brain but not normal brain”. For the same substance, in test [3], the “Phage accumulation in normal brain” value is “no accumulation in normal brain” and the “Phage homing to AD hippocampus” value is recorded as “home to AD hippocampus with high specificity”. The substance CKVRKSEGC [SEQ ID NO: 85] had a Frequency/% in test [1] (Wild-type mouse) of 3.559%. For CLSLD [SEQ ID NO: 88], the Frequency/% in test [1] (Wild-type mouse) amounted to 2.286%. Take CLTDNEETC [SEQ ID NO: 7]: in test [1] (setting [5]), the Frequency/% was 0.3341%. The same measure, in the same setting: to CNSKETSRC [SEQ ID NO: 5] belongs 0.3885%.

As for CRKQGEAKC [reference compound], the “Homing of FAM-labeled peptide” value in test [2] is reported as “essentially no homing to the hippocampus of hAPP-J20 mice”. As for CRKQPTNVC [SEQ ID NO: 92], in test [1] (Wild-type mouse), the Frequency/% is recorded as 1.495%. On the same count and under the same terms, the value for CRTPLNPRC [SEQ ID NO: 95] was 1.171%. On the same count and under the same terms, the value for CSDRRLIDC [SEQ ID NO: 90] was 1.737%. On the same count and under the same terms, the value for CSGDMETKC [SEQ ID NO: 89] was 1.846%.

Consider CSGKAQRGC [SEQ ID NO: 100], for which the Frequency/% in test [1] (setting [5]) amounted to 0.3349%. In test [1] (setting [5]), CSKTTE [SEQ ID NO: 2] yielded a Frequency/% of 0.8549%. On the same count and under the same terms, to CSPE [SEQ ID NO: 6] belongs 0.3766%. The substance CSRTSKQAC [SEQ ID NO: 98] came in with a Frequency/% in test [1] (Wild-type mouse) of 1.022%.

CSTNA [SEQ ID NO: 93] showed a Frequency/% in test [1] (Wild-type mouse) of 1.426%. Substance CTKTAK [SEQ ID NO: 10] came in with a Frequency/% in test [1] (setting [5]) of 0.3191%. Consider CTREGNETC [SEQ ID NO: 96], for which the Frequency/% in test [1] (Wild-type mouse) is recorded as 1.098%. CTVNGKRSC [SEQ ID NO: 99]: the Frequency/% in test [1] (Wild-type mouse) came out at 0.9707%. Substance CVPKGKLVC [SEQ ID NO: 84] yielded a Frequency/% in test [1] (Wild-type mouse) of 4.678%.

Take CVPKGKLVLLSL [SEQ ID NO: 86]: the Frequency/% in test [1] (Wild-type mouse) is listed as 2.377%. For the substance “FAM-CASPRLSKC: fluorescein-amide (FAM)-labeled CASPRLSKC peptide ({FAM}-CASPRLSKC-NH2; cysteine pairing not given here)”, the “Homing of FAM-labeled peptide” value in test [2] is “homed to AD, but not normal, hippocampus”. Take “FAM-CESPLLSEC: fluorescein-amide (FAM)-labeled CESPLLSEC peptide ({FAM}-CESPLLSEC-NH2; cysteine pairing not given here)”: in test [2], the “Homing of FAM-labeled peptide” value is reported as “homed to AD, but not normal, hippocampus”. As to “FAM-DAG: Fluoresceinamine (FAM)-labeled synthetic DAG peptide ({FAM}-CDAGRKQKC-NH2; disulfide 1-9 (inferred); not fully specified)”, the “Inhibition of CTGF binding by unlabeled DAG” value in test [4] is on record as “Non-labeled DAG inhibited the binding of FAM-DAG”. In addition, the “Homing of FAM-labeled peptide” value in test [2] was “specifically homed AD hippocampus”. Consider SSVDKL [SEQ ID NO: 9], for which, in test [1] (setting [5]), the Frequency/% was found to be 0.3223%.
